Measured values from ChEMBL document CHEMBL1212714, “Dentigerumycin: a bacterial mediator of an ant-fungus symbiosis” (2009).
≈ marks a conversion by molar mass, not a printed value. Calls of active or inactive are those of the source. The rule behind the calls is not given here.

What was measured:
[1] = Antifungal activity against Escovopsis at 37degC after 48 hrs by liquid culture assay; type: functional
Candida albicans [2] = assay: Antifungal activity against wild type Candida albicans at 37degC after 48 hrs by liquid culture assay; type: functional
Candida albicans [3] = assay: Antifungal activity against Candida albicans ATCC 200955 at 37degC after 48 hrs by liquid culture assay; type: functional; details: ATCC 200955, 48 h
Candida albicans [4] = assay: Antifungal activity against Candida albicans ATCC 10231 at 37degC after 48 hrs by liquid culture assay; type: functional; details: ATCC 10231, 48 h
Escovopsis = assay: Antifungal activity against Escovopsis CC011120-4 assessed as growth inhibition at 5 mg/ml by plate antifungal assay; type: functional
[5] = system: ant fungal cultivar CC011120-4 (mutualistic fungus); assay: Antifungal activity against ant fungal cultivar CC011120-4 assessed as growth inhibition at 5 mg/ml by plate antifungal assay

MIC [1]: 2.8 µM (≈ 2.47 µg/mL)
MIC (Candida albicans [2]): 1.1 µM (≈ 0.97 µg/mL)
MIC (Candida albicans [3]): 1.1 µM (≈ 0.97 µg/mL)
MIC (Candida albicans [4]): 1.1 µM (≈ 0.97 µg/mL)
SMILES: CCC[C@H]1CC[C@](O)([C@](C)(O)C(=O)N[C@@H]2C(=O)N3NCCC[C@@H]3C(=O)N(O)[C@@H](C)C(=O)N3NCCC[C@@H]3C(=O)N3NC[C@@H](O)C[C@H]3C(=O)N[C@@H](C)C(=O)O[C@H]2C(C)C)O[C@@H]1CC [DENTIGERUMYCIN]
growth inhibition (GI) (Escovopsis): Active
growth inhibition (GI) [5]: inactive
